Measured values reported in publication PMC11187126, “Structure and dynamics of the pyroglutamylated RF-amide peptide QRFP receptor GPR103” (Nature Communications, 2024).
Where two headings read alike, the source gives them in different places. No end group written: not given here.

Target: T1, GPR103 E203^ECL2A (Homo sapiens, UniProt Q96P65, E203A)
T1 construct: we used human full-length QRFPR-encoding plasmids; expressed in transfected cells; host or cells: HEK293 cells, pCAGGS vector
T1 sequence (Q96P65 1-431 E203A): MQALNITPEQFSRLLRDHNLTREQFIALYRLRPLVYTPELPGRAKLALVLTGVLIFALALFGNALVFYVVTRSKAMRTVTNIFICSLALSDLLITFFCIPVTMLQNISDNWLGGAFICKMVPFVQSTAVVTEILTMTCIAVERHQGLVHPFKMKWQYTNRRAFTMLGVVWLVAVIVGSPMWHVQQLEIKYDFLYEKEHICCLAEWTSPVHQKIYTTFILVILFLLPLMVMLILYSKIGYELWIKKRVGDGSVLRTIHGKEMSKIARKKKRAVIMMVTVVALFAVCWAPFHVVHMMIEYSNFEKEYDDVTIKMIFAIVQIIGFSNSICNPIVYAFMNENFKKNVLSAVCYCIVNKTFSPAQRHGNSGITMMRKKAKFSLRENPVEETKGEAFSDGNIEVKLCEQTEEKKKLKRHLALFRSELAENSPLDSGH
Assay: TGFα shedding assay; Exp. level >WT (1:1)
Type: cell-based
Protocol: For the TGFα shedding assay and the flow cytometry analysis, we used human full-length QRFPR-encoding plasmids. Specifically, GPR103 was N-terminally modified with an HA signal sequence followed by a FLAG epitope and then a flexible linker ([…]; the FLAG epitope is underlined) and inserted into the pCAGGS vector. Plasmid encoding GPR103 mutants were generated using Quickchange Site-Directed Mutagensis kit (Agilent).
The TGFα shedding assay was performed as described previously with minor modifications. Plasmid transfection was performed in a 6-well plate with a mixture of 500 ng (per well in a 6-well plate) AP-TGFα-encoding plasmid and 200 ng GPR103-encoding plasmid. After 1-day culture, the transfected cells were harvested by trypsinization, pelleted by centrifugation at 190 × g for 5 min, and washed once with 5 mM HEPES (pH 7.4)-containing Hank’s Balanced Salt Solution (HBSS). After centrifugation, the cells were resuspended in 8 mL of the HEPES-containing HBSS. The cell suspension was seeded in a 96-well culture plate (cell plate) at a volume of 90 μL (per well hereafter) and incubated in a 37 °C incubator with 5% CO2 for 30 min. […] After spinning the cell plates at 190 × g for 2 min, 80 μL of conditioned media was transferred to an empty 96-well plate (conditioned media (CM) plate). Then, 80 μL of AP reaction solution (10 mM p-nitrophenylphosphate (p-NPP), 120 mM Tris-HCl (pH 9.5), 40 mM NaCl, and 10 mM MgCl2) was dispensed into the cell plates and the CM plates. Absorbance at 405 nm of the plates was measured using a microplate reader (SpectraMax 340 PC384, Molecular Devices) before and after 1-h incubation at room temperature. Ligand-induced AP-TGFα release was calculated by subtracting spontaneous AP-TGFα release signal from ligand-induced AP-TGFα release signal. The AP-TGFα release signals were fitted to a four-parameter sigmoidal concentration–response curve, using the Prism 10 software (GraphPad Prism). For each replicate experiment, the pEC50 parameter (negative logarithmic values of EC50 values) of the individual GPR103 mutants were normalized to that of the wild-type GPR103 performed in parallel, and resulting ∆pEC50 values were used to denote ligand response activity of the mutants. […]
Exp. le vel: WT (1:5 0)Exp. le vel: WT (1:5 0)Exp. le vel: WT (1:5 0)Exp. le vel: WT (1:2 0)Exp. le vel: WT (1:2 0)Exp. le vel: WT (1:1 0) […]
L1 4N - t e r mA F2 5N - t e r mA I 2 6N - t e r mA Y 2 9N - t e r mA C 9 82 .5 7A T10 22 .6 1A Exp . l eve l: WT (1 :5)Exp . l evel : >WT (1 :1)Exp. le vel: WT (1:2 0)Exp. le vel: WT (1:2 0)Exp. le vel: WT (1:5 0)Exp . l eve l: WT (1 :1) […]
Exp. le vel: WT (1:1 0)Exp. le vel: WT (1:2 0) C 1 1 83 .2 5AExp. le vel: WT (1:5 0)Exp. le vel: WT (1:5 0)Exp. le vel: WT (1:2 0)Exp . l eve l: WT (1 :5) […]
Exp. le vel: WT (1:5 0)Exp. le vel: WT (1:1 0)Exp. le vel: WT (1:5 0) E203ECL2AExp . l evel : >WT (1 :1)Exp. le vel: WT (1:5 0)Exp. le vel: WT (1:5 0) […]
Exp . l eve l: WT (1 :1) F28Exp. le vel: WT (1:5 0) C 2 8 56 .4 7AExp. le vel: WT (1:2 0) WExp. le vel: WT (1:2 0) F28Exp. le vel: WT (1:5 0)Exp . l evel : >WT (1 :1) […]
Exp. le vel: WT (1:5 0)Exp. le vel: WT (1:5 0) C 3 2 77 .4 8AExp . l eve l: WT (1 :5)Exp . l evel : >WT (1 :1)Exp . l evel : >WT (1 :1) […]
Suppl eme nt ary Figure 1 | Mutational analysis of GPR103. […]
mutants. Data are presented as mean values ± SEM, normally n=3-5; dots), each performed in triplicate. b-d Cell-surface expression (b) and QRFP26-in-duced activation of GPR103 (c, d) were analyzed by the flow cytometry and the TGFα shedding assay, respectively. From the concentration–response curves (a), Emax (c) and ΔpEC50 (d) values relative to the wild type were calculated. Colors in the mutant bars indicate an expression level matching to that of titrated wild type. Statistical analyses were performed using the ordinary one-way ANOVA followed by Dunnett tests with the expression-matched […]

Emax (Exp. #1): 96.63 % WT
Emax (Exp. #2): 100.59 % WT
Emax (Exp. #3): 99.12 % WT
Emax (mean, read-out: Emax): 98.8%
EC50 (n = 3): 0.288 µM
Emax (n = 3, read-out: Emax): 101 ± 0.94%
Substance: TSGPLGNLAEELNGYSRKKGGFSFRF-NH2 [QRFP26]
